The subject of the assay is canine genes differentially expressed in organs (liver, spleen, kidney, testes, heart, thymus). Kind of assay: Transcriptome profiling / differential display of tissues from canines exposed to an agent versus vehicle (reverse transcription, PCR, reamplification of bands, sequencing). It counts as in vivo.
The mark [1] stands for this setting: Band # CTP60B, Homo sapiens RNA bindii XM_016120.
The mark [2] stands for this setting: Band # CTP65A, Pig mRNA for endoplasm X16951.
The mark [3] stands for this setting: Band # CTP74A, No significant match.
Where [4] appears, read: Band # CTP75C, No significant match.
The mark [5] stands for this setting: Band # CTP85D, Homo sapiens Rho-assoc XM_008814.
Where [6] appears, read: Band # CTP122I, Human mRNA for KIAA0(D26067).
Setting [7] is: Band # CTP185C, No significant match.
Where [8] appears, read: Band # CTP206A, Homo sapiens fatty acid c NM_013402.

On to `N.N.O=C([O-])C1(C(=O)[O-])CCC1.[Pt+2]` [carboplatin], for which the “Expression Pattern” value (Band # CTP28D, Homo sapiens upstream INM_014517) is given as “repressed in carboplatin”; the “Expression Pattern” value (Band # CTP30E, Homo sapiens BAC clone AC003083) is on record as “repressed in carboplatin”; the “Expression Pattern” value (Band # CTP58A, No significant match) was “repressed with carboplatin”; the “Expression Pattern” value under setting [1] was “repressed with carbo and trans platin”; the “Expression Pattern” value under setting [2] was “repressed with carbo and trans platin”; the “Expression Pattern” value (Band # CTP71A, Canis familiaris caveolin- U47060) is “induced with carboplatin”. The “Expression Pattern” value is “repressed with carbo, trans and cisplatin” under setting [3]; “repressed with carbo, trans and cisplatin” under setting [4]; “repressed with carbo, trans and cisplatin” under setting [5]; “repressed with carbo and transplatin” under setting [6]; “induced with carboplatin” (Band # CTP178B, Homo sapiens mRNA for AB040957); “induced with carboplatin” (Band # CTP179K, No significant match). For the same molecule, the “Expression Pattern” value is, setting by setting: under setting [7], “induced with carbo and trans platin”; (Band # CTP197A, No significant match) “induced with carboplatin”; (Band # CTP201B, Homo sapiens, exostoses BC001174) “induced with carboplatin”; (Band # CTP202C, No significant match) “induced with carboplatin”; (Band # CTP205D, Homo sapiens similar to XM_011187) “induced with carboplatin”; under setting [8], “repressed with carbo and transplatin”. In addition, under “dog, in vivo”, the “Expression Pattern” value is “repressed with carbo and trans platin”.
Consider `N.N.[Cl][Pt+2][Cl]` [transplatin], for which the “Expression Pattern” value under setting [1] is “repressed with carbo and trans platin”; the “Expression Pattern” value under setting [2] was “repressed with carbo and trans platin”; the “Expression Pattern” value under setting [3] is “repressed with carbo, trans and cisplatin”; the “Expression Pattern” value under setting [4] is “repressed with carbo, trans and cisplatin”; the “Expression Pattern” value under setting [5] is “repressed with carbo, trans and cisplatin”; the “Expression Pattern” value under setting [6] is “repressed with carbo and transplatin”. Moreover, the “Expression Pattern” value (Band # CTP129A, Homo sapiens, Similar to BC007583) is given as “induced with transplatin”; the “Expression Pattern” value under setting [7] was “induced with carbo and trans platin”; the “Expression Pattern” value under setting [8] was “repressed with carbo and transplatin”; the “Expression Pattern” value (Band # CTP208B, No significant match) was “induced with transplatin”; the “Expression Pattern” value (dog, in vivo) is “repressed with carbo and trans platin”.
As to `CC(=O)Oc1ccccc1C(=O)O` [aspirin], the “Expression Pattern” value reads like this: (Band # CTP1D, No significant match) “upregulated with Etoposide, caffeine”; (Band # CTP1G, No significant match) “upregulated with Etoposide, caffeine”; (Band # CTP3B, Homo Sapien N-myc dow BC003175, larger band of doublet) “doublet-larger band is upregulated”; (Band # CTP25D, No significant match) “repressed with caffeine and aspirin”; (Band # CTP26A, Canis familiaris chymase U89607) “repressed with caffeine and aspirin”; (Band # CTP26B, H. sapiens cycA gene for X68303) “repressed with caffeine and aspirin”. Moreover, the “Expression Pattern” value runs as follows: (Band # CTP27C, Homo sapiens CTCL turn AF177227) “repressed with etoposide and aspirin”; (Band # CTP32D, cDNA FLJ14795 fls, clone AK027701) “repressed with caffeine and aspirin”; (Band # CTP144B, No significant match) “repressed with caffeine and aspirin”; (Band # CTP145B, No significant match) “repressed with aspirin”; (Band # CTP148B, Homo sapiens serine-thre AF108830) “induced with aspirin”; (Band # CTP161B, Canis familiaris TCTA ger AJ012166) “induced with aspirin”. Moreover, the “Expression Pattern” value runs as follows: (Band # CTP164A, No significant match) “induced with aspirin”; (Band # CTP215B, No significant match) “induced with aspirin”; (Band # CTP222D, No significant match) “induced with aspirin”.

Values taken from patent US7091033B2, “Array of toxicologically relevant canine genes and uses thereof” (Phase-1 Molecular Toxicology, Inc., priority 2000, dated 2006).
